Laboratory results as given in patent US8192962B2, “Processes for detecting toxic substances” (Daikin Industries, Ltd., priority 2001, dated 2012).

System: Energy system protein genes
Assay: DNA chip mRNA expression in yeast, energy system protein genes (Table 4)
Type: cell-based, Saccharomyces cerevisiae S288C
How it was run: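 Cells were grown at 25° C. in YPD, treated at logarithmic phase for 2 h with a chemical at a concentration inhibiting growth but not causing death, and compared with untreated cultures. Labeled cDNA was hybridized to a DNA chip carrying all yeast genes, and the expression ratio was taken from scanner fluorescence.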

Measured: The level of expressed mRNA in the presence of chemical substance/The level of expressed mRNA in the absence of chemical substance

O=[N+]([O-])c1cc[n+]([O-])c2ccccc12 [(5), 4-nitroquinolin-N-oxide]
0.5: yeast gene YCL040W | yeast gene YDL174C
1.1: yeast gene YCR012W | yeast gene YDR001C | yeast gene YDR231C | yeast gene YGL018C, cells incubated two hours with the chemical substance | yeast gene YGL205W, cells incubated two hours with the chemical substance | yeast gene YGR192C
1.3: yeast gene YBR221C, cells incubated two hours with the chemical substance | yeast gene YDL078C, cells incubated two hours with the chemical substance | yeast gene YDR298C, cells incubated two hours with the chemical substance | yeast gene YEL024W, cells incubated two hours with the chemical substance | yeast gene YGL187C, cells incubated two hours with the chemical substance
2.0: yeast gene YDL067C, cells incubated two hours with the chemical substance
1.2: yeast gene YAL060W | yeast gene YDR079W, cells incubated two hours with the chemical substance | yeast gene YDR529C, cells incubated two hours with the chemical substance | yeast gene YGR254W | yeast gene YHR179W
0.9: yeast gene YBR001C, cells incubated two hours with the chemical substance | yeast gene YCR105W, cells incubated two hours with the chemical substance | yeast gene YDR050C, cells incubated two hours with the chemical substance | yeast gene YDR178W, cells incubated two hours with the chemical substance | yeast gene YEL039C, cells incubated two hours with the chemical substance | yeast gene YFL057C | yeast gene YFR053C | yeast gene YGL062W | yeast gene YGL191W, cells incubated two hours with the chemical substance | yeast gene YGR008C | yeast gene YGR043C
1.9: yeast gene YDR377W, cells incubated two hours with the chemical substance
1.6: yeast gene YBL058W, cells incubated two hours with the chemical substance | yeast gene YIR031C, cells incubated two hours with the chemical substance | yeast gene YJL166W, cells incubated two hours with the chemical substance
0.7: yeast gene YER178W | yeast gene YGL256W, cells incubated two hours with the chemical substance | yeast gene YGR062C, cells incubated two hours with the chemical substance, 25° C., YPD medium | yeast gene YJL052W
0.8: yeast gene YBR185C, cells incubated two hours with the chemical substance | yeast gene YGR244C | yeast gene YJL216C, cells incubated two hours with the chemical substance
1.0: yeast gene YBL099W, cells incubated two hours with the chemical substance | yeast gene YCR046C, cells incubated two hours with the chemical substance | yeast gene YDL107W, cells incubated two hours with the chemical substance | yeast gene YGR087C, cells incubated two hours with the chemical substance | yeast gene YGR174C, cells incubated two hours with the chemical substance | yeast gene YIL160C | yeast gene YJL121C, cells incubated two hours with the chemical substance
1.7: yeast gene YDL021W | yeast gene YDL181W, cells incubated two hours with the chemical substance
